Read-outs that look alike come from different tables or passages of the source.
Assays:
Type in all cases: in vivo
[1] = system: cucumber anthracnose fungus Colletotrichum orbiculare; conditions: alone, rating scale of Test Example 1
[2] = system: wheat speckled leaf blotch fungus Septoria tritici; experiment: Test for wheat speckled leaf blotch (Septoria tritici); conditions: alone
Experimental: Test for Wheat Speckled Leaf Blotch (Septoria tritici)
(§1) The agrochemical formulations diluted to predetermined concentrations were applied to wheat plants at a predetermined amount with a spray gun. After air-drying, the wheat plants were spray-inoculated with a spore suspension of the wheat speckled leaf blotch fungus Septoria tritici (1.0×10^7 spores/mL). After that, the wheat pots were kept in a greenhouse under light conditions at 15° C. and 100% RH to induce the development of the disease. At 17 days after the inoculation, the disease area percentage was indexed on a scale of 0 to 10 to evaluate the control efficacy. The control value is expressed in percentage (%) as shown below or in index form as in Example 1.
Disease Severity Index Scale
0: No manifestation of disease
1: Lesion area percentage is 1 to 10%.
2: Lesion area percentage is 11 to 20%.
3: Lesion area percentage is 21 to 30%.
4: Lesion area percentage is 31 to 40%.
5: Lesion area percentage is 41 to 50%.
6: Lesion area percentage is 51 to 60%.
7: Lesion area percentage is 61 to 70%.
8: Lesion area percentage is 71 to 80%.
9: Lesion area percentage is 81 to 90%.
10: Lesion area percentage is 91 to 100%.
Control value (%)=(disease severity index in non-treatment plot−disease severity index in treatment plot)×100/disease severity index in non-treatment plot [Math. 3]

[3] = system: rice blast fungus Pyricularia oryzae; conditions: alone
[4] = system: cucumber gray mold fungus Botrytis cinerea; experiment: Test for control efficacy against cucumber gray mold; conditions: alone, from diameter of lesion area
Experimental: Test for Control Efficacy Against Cucumber Gray Mold
The agrochemical formulations diluted to predetermined concentrations were applied to the foliage of cucumber plants (variety: Suuyou) at the one-leaf stage grown in individual pots. The application rate was 50 mL per pot. On the day following the application, 6-mm-diameter paper disks were impregnated with a spore suspension of the cucumber gray mold fungus Botrytis cinerea cultured on PSA medium, and inoculated onto cucumber true leaves. The pots were kept at a temperature of 20° C. and a humidity of 100%. At 6 days after the inoculation, the control value was determined by the equation 4 shown below.
Control value (%)=(diameter of lesion area in non-treatment plot−diameter of lesion area in treatment plot)×100/diameter of lesion area in non-treatment plot [Math. 4]

[5] = system: leaf rust fungus Puccinia recondita; experiment: Test for control efficacy against wheat leaf rust; conditions: alone, scale of 0 to 10
Experimental: Test for Control Efficacy Against Wheat Leaf Rust
as §1, with “the” for “the wheat speckled”, “rust” for “blotch”, “Puccinia recondita” for “Septoria tritici”, “7” for “17”, “efficacy.” for “efficacy. The control value is expressed in percentage (%) as shown below or in index form as in Example 1.”

[6] = system: Laodelphax striatellus; experiment: Test for control efficacy against Laodelphax striatellus; conditions: alone, 30 days after the agrochemical treatment
Excerpt: Test for Control Efficacy Test Against Laodelphax striatellus
Adults of the test insect were released onto rice plants (variety: Kinmaze, 95 days after transplantation) grown in individual 2-L pots (8 females and 5 males per pot). At 11 days after the insect release (when hatched larvae were observed), mixed formulations of compound [1-7] and other agrochemicals and each individual agrochemical (prescribed effective doses) were separately applied. After air-drying and at 10 days after the agrochemical treatment, adults of the test insect were additionally released onto the rice plants (8 females and 5 males per pot). At 30 days after the agrochemical treatment, the number of survivors was measured, and the control value was calculated by equation 6. In addition, the expected value E for the mixed use was calculated by Colby's equation as described in Test Example 1. When the actual control efficacy of combined treatment with two different agrochemicals is greater than the expected value E, the combination can be regarded as having synergistic effect.
Control value (%)=(1−number of survivors/number of survivors in control plot)×100 [Math. 6]
Assuming that the control value for “no grade” is 49%, when the control values of the two different agrochemicals are both 49%, the expected value E calculated by Colby's equation is as follows: E=(49+49)−(49×49/100)=73.99. The control value of 73.99 corresponds to grade C. Therefore, when both the agrochemicals are graded as no grade, the expected value is C.

[7] = system: tomato late blight fungus Phytophthora infestans; conditions: alone, rating scale of Test Example 2
[8] = system: Plutella xylostella; experiment: Test for control efficacy against Plutella xylostella; conditions: alone
Excerpt: Test for Control Efficacy Against Plutella xylostella
Brassica oleracea var. capitata (variety: YR Seitoku) seedlings were planted in a glass greenhouse, and after reaching the 12- to 15-leaf stage, the seedlings were inoculated with 3rd-instar larvae of Plutella xylostella. The number of surviving larvae per three plants before agrochemical treatment was counted. A mixed formulation of compound [1-2] and flubendiamide (prepared according to Formulation Example 5) and each individual agrochemical were separately diluted to predetermined concentrations in water and applied to the Brassica oleracea var. capitata plants. The number of surviving larvae was counted at 2 and 6 days after the application, and the control efficacy was calculated by the equation 5 shown below. In addition, the expected value E was calculated by Colby's equation as described in Test Example 1.
Control efficacy (%)=100−{(Ta×Cb)/(Tb×Ca)}×100 [Math. 5]
Ta=number of survivors after agrochemical treatment in treatment plot
Tb=number of survivors before agrochemical treatment in treatment plot […]
As a result of the test for control efficacy against Plutella xylostella, the control efficacy of the composition composed of compound […] was greater than the expected value E calculated by Colby's equation from the control efficacy of the individual compounds. […]

In the case of Fc1ccc([C@]2(Cn3cncn3)O[C@H]2c2ccccc2Cl)cc1 (racemic) [Epoxiconazole 8EC, epoxiconazole], the Control value ([1]; 0.5 ppm) is reported as 0.0, the Control value ([1]; 2 ppm) is reported as 0.0 and the “Control value (%)” value ([2]; 0.4 ppm, Compound [1-5] series) is reported as 0%. The “Control value (%)” value ([2]; 1.1 ppm, Compound [1-5] series) was 0%, the “Control value (%)” value ([2]; 2 ppm, Compound [1-7] series) was 0.0% and the “Control value (%)” value ([2]; 3.3 ppm, Compound [1-5] series) was 16%. The “Control value (%)” value ([2]; 8 ppm, Compound [1-7] series) was 6.0%, the “Control value (%)” value ([2]; 10 ppm, Compound [1-5] series) was 86% and the Control value ([3]; 0.5 ppm, ten-point scale) was 0.0. It also gave a Control value ([3]; 2 ppm, ten-point scale) of 3.0, a Control value ([3]; 8 ppm, ten-point scale) of 10 and a Control value ([4]; 67 ppm) of 55%. It also gave a Control value ([4]; 200 ppm) of 100%, a Control value ([5]; 0.5 ppm) of 7.0 and a Control value ([5]; 2 ppm) of 10.0.

Compound CO/C=C(/C(=O)OC)c1ccccc1Oc1cc(Oc2ccccc2C#N)ncn1 [Azoxystrobin 20SC, azoxystrobin] has a Control value ([1]; 0.3 ppm) of 2.0, a Control value ([1]; 3 ppm) of 8.0 and a Control value ([3]; 0.3 ppm, ten-point scale) of 1.0. For the same compound, the Control value ([3]; 3 ppm, ten-point scale) was 10, the Grade ([6]; 100 ppm) was “No grade (less than 50%)” and the Grade ([6]; 500 ppm) was “No grade (less than 50%)”. It also gave a Control value ([7]; 0.3 ppm) of 0.0, a Control value ([7]; 3 ppm) of 2.0 and a Control value ([5]; 0.3 ppm) of 0.0. The Control value ([5]; 3 ppm) was 9.0.

O=C(Nc1ccccc1-c1ccc(Cl)cc1)c1cccnc1Cl [Boscalid 50WG, boscalid] gave a Control value ([4]; 2 ppm) of 8%, a Control value ([4]; 7 ppm) of 18% and a Control value ([4]; 22 ppm) of 20%.

Work on CCC(Nc1ncnc(C)c1Cl)c1ccc(OC(F)F)cc1 (stereo not drawn) [Diflumetorim 10EC, diflumetorim] yielded a Control value ([1]; 10 ppm) of 2.0, a Control value ([3]; 10 ppm, ten-point scale) of 8.0 and a Control value ([5]; 10 ppm) of 1.0.

In the case of CC1(C(=O)Nc2ccc(O)c(Cl)c2Cl)CCCCC1 [Fenhexamid 50SC, fenhexamid], the Control value ([4]; 7 ppm) is reported as 0%, the Control value ([4]; 22 ppm) is reported as 0% and the Control value ([4]; 200 ppm) is reported as 53%.

For N#Cc1c[nH]cc1-c1cccc2c1OC(F)(F)O2 [Fludioxonil 20SC, fludioxonil], the Control value ([1]; 3 ppm) was 7.0, the Control value ([1]; 10 ppm) was 9.5 and the Control value ([3]; 3 ppm, ten-point scale) was 6.0. The Control value ([3]; 10 ppm, ten-point scale) was 9.0, the Control value ([4]; 7 ppm) was 0% and the Control value ([4]; 22 ppm) was 59%. The Control value ([5]; 3 ppm) was 0.0, the Control value ([5]; 10 ppm) was 0.0 and the Control value ([5]; 200 ppm) was 4.0.

In the case of O=C(NCCc1ncc(C(F)(F)F)cc1Cl)c1ccccc1C(F)(F)F [Fluopyram 50SC, fluopyram], the Control value ([1]; 3 ppm) is reported as 0.0, the Control value ([1]; 10 ppm) is reported as 2.0 and the “Control value (%)” value ([2]; 10 ppm, Compound [1-7] series) is reported as 0.0%. The Control value ([3]; regardless of the concentration) was 0.

For Cn1cc(C(=O)Nc2ccccc2-c2cc(F)c(F)c(F)c2)c(C(F)F)n1 [Fluxapyroxad 6EC, fluxapyroxad], the Control value ([1]; 1 ppm) was 0.0, the “Control value (%)” value ([2]; 0.07 ppm, Compound [1-5] series) was 16% and the “Control value (%)” value ([2]; 0.22 ppm, Compound [1-5] series) was 31%. The “Control value (%)” value ([2]; 0.67 ppm, Compound [1-5] series) was 65%, the “Control value (%)” value ([2]; 1 ppm, Compound [1-7] series) was 0.0% and the “Control value (%)” value ([2]; 2.0 ppm, Compound [1-5] series) was 98%. For the same compound, the “Control value (%)” value ([2]; 6.0 ppm, Compound [1-5] series) was 99%, the Control value ([3]; 0.3 ppm, ten-point scale) was 0.0 and the Control value ([3]; 1 ppm, ten-point scale) was 0.0. For the same compound, the Control value ([7]; 1 ppm) was 0.0.

With OC(Cc1ccccc1Cl)(Cn1nc[nH]c1=S)C1(Cl)CC1 (stereo not drawn) [Prothioconazole 25EC, prothioconazole] the Control value ([1]; 6.25 ppm) was 8.0, the Control value ([1]; 25 ppm) was 10 and the Control value ([3]; 6.25 ppm, ten-point scale) was 5.0. For the same compound, the Control value ([3]; 25 ppm, ten-point scale) was 9.0, the Control value ([7]; 25 ppm) was 0.0 and the Control value ([5]; 6.25 ppm) was 0.0. The Control value ([5]; 25 ppm) was 5.0.

In the case of COC(=O)N(OC)c1ccccc1COc1ccn(-c2ccc(Cl)cc2)n1 [Pyraclostrobin 25EC, pyraclostrobin], the Control value ([1]; 3 ppm) is reported as 7.0, the Grade ([8]; 10 ppm) is reported as “No grade (less than 50%)” and the Grade ([8]; 50 ppm) is reported as “A (100%)”. For the same compound, the Grade ([6]; 10 ppm) was “No grade (less than 50%)”, the Grade ([6]; 50 ppm) was “A (100%)” and the Control value ([7]; 3 ppm) was 4.0. For the same compound, the Control value ([5]; 1 ppm) was 5.0 and the Control value ([5]; 3 ppm) was 9.0.

In the case of O=C(Nc1ccccc1-c1ccc(F)c(F)c1)c1nccnc1C(F)(F)F [Pyraziflumid 20SC, pyraziflumid], the Control value ([1]; 0.5 ppm) is reported as 0.0, the Control value ([1]; 2 ppm) is reported as 0.0 and the “Control value (%)” value ([2]; 0.2 ppm, Compound [1-5] series) is reported as 1%. For the same compound, the “Control value (%)” value ([2]; 0.7 ppm, Compound [1-5] series) was 53%, the “Control value (%)” value ([2]; 2 ppm, Compound [1-7] series) was 6.0% and the “Control value (%)” value ([2]; 2.2 ppm, Compound [1-5] series) was 92%. For the same compound, the “Control value (%)” value ([2]; 6.7 ppm, Compound [1-5] series) was 99%, the “Control value (%)” value ([2]; 20 ppm, Compound [1-5] series) was 100% and the Control value ([7]; 2 ppm) was 0.0. For the same compound, the Control value ([5]; 2 ppm) was 2.0.

In the case of CC(C)(C)C(O)(CCc1ccc(Cl)cc1)Cn1cncn1 (stereo not drawn) [Tebuconazole 25EW, tebuconazole], the Control value ([1]; 0.3 ppm) is reported as 0.0, the “Control value (%)” value ([2]; 1 ppm, Compound [1-7] series) is reported as 0.0% and the Control value ([3]; 0.3 ppm, ten-point scale) is reported as 0.0. The Control value ([3]; 1 ppm, ten-point scale) was 0.0 and the Control value ([7]; 1 ppm) was 0.0.
